Experimental data: US9890138B2, “Diaminopyrimidine derivatives and processes for the preparation thereof” (YUHAN CORPORATION, priority 2011, dated 2018)
Structures can show the parent of a compound that is named as a salt.

target: T1, human 5-HT4(a) (Homo sapiens, UniProt Q13639); experiment: Evaluation of agonistic activity in CHO-K1 cells expressing human 5-HT4(a) (GeneBlAzer HTR4-CRE-bla CHO-K1, beta-lactamase reporter); assay type: cell-based; details: CHO-K1 cells stably expressing human 5-HT4(a)
T1 construct: host or cells: GeneBlAzer HTR4-CRE-bla CHO-K1 cells
T1 sequence (Q13639 1-387 isoform Q13639-2): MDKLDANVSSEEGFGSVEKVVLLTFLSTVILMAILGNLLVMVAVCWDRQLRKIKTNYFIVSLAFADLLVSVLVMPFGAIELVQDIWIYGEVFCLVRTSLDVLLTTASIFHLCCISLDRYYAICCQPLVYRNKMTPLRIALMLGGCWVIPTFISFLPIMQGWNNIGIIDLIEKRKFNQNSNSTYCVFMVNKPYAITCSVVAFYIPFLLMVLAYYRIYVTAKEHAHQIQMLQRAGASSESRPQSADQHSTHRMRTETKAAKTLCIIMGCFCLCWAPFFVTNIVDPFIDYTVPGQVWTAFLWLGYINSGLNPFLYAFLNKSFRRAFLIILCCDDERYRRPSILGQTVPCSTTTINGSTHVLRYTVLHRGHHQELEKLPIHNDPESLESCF
Description: Test Example 1: Evaluation of Agonistic Activity in CHO-K1 Cells Expressing Human 5-HT4(a)
As CHO-K1 cells stably expressing human 5-HT4(a), we used the GeneBlAzer HTR4-CRE-bla CHO-K1 cells (Invitrogen Corp.). The cells were cultured, under the condition of 37[…] and 5% CO2, in a DMEM supplemented with 10% fetal bovine serum (FBS), 25 mM HEPES (pH7.4), 600 μg/ml hygromycin B, 0.1 mM non-essential amino acids, 100 unit/ml penicillin and 100 μg/ml streptomycin. Subcultures were performed three times per one week, each being at less than 80% confluence. At the previous day before treating test compounds, the cells were collected using 0.5% trypsin/EDTA and then diluted with a DMEM supplemented with 1% FBS, 25 mM HEPES, and 0.1 mM non-essential amino acids into 3.125×10^5 cells/ml. 32 μl of the diluted cells were added into 384-well plate (10^4 cells per well) and then incubated overnight. After the overnight culture, 8 μl of the medium having 1% of DMSO was added into the cell-free control well and the non-stimulating control well, respectively. 8 μl of the respective test compound dilutions (which had been prepared by diluting by 100-times with the medium as mentioned in the above) having 1% of DMSO were added to the respective remaining wells. After being cultured in the incubator for 5 hours, the wells of the 384-plate were treated with the substrate solution (8 μl per well) prepared according to the vendor's instruction (i.e., Invitrogen's instruction), and then incubated in the dark room for additional two hours. Agonistic activities on 5-HT4 receptor were evaluated, on the basis of fluorescence values of the cleavage-products by beta-lactamase. After exciting to 410 nm of wavelength using a fluorescence detector (Genios Pro), we measured the fluorescence values at two emission wavelengths (first wavelength: 465 nm, second wavelength: 535 nm). Data were analyzed on the basis of the ratio of fluorescence intensities of each well at the respective wavelengths. Each EC50 value was calculated by non-linear regression analysis using the “GraphPad Prism” program, based on the activities according to 8-different concentrations of the test compounds.

Row | Compound | EC50 [nM]
1 | CCCc1cc(N2CCC[C@H]2CO)nc(Nc2ccc(F)c([N+](=O)[O-])c2)n1 [Example 208, (S)-{1-[2-(4-fluoro-3-nitrophenylamino)-6-propylpyrimidin-4-yl]pyrrolidin-2-yl}methanol] | 0.06
2 | CCCc1cc(N2CC[C@H](NCCNC(=O)OC(C)(C)C)C2)nc(Nc2cccc(C#N)c2)n1 [Example 136, (S)-tert-butyl 2-{1-[2-(3-cyanophenylamino)-6-propylpyrimidin-4-yl]pyrrolidin-3-ylamino}ethylcarbamate] | 0.045
3 | CCCCc1cc(N2CC[C@H](NCC)C2)nc(Nc2cc(N)cc(C#N)c2)n1 [Example 465] | 0.0022
4 | CCCc1cc(N2CCC[C@H]2C)nc(Nc2ccc(N)c(C#N)c2)n1 [Example 327] | 0.025
5 | CCCCc1cc(N2CC[C@H](NC(C)=O)C2)nc(Nc2cccc(C#N)c2)n1 [Example 223] | 0.011
6 | CCCCc1cc(N2CC[C@H](NC(C)=O)C2)nc(Nc2ccc(N)c(C(F)(F)F)c2)n1 [Example 441] | 0.0095
7 | CCCc1cc(N2CC[C@H](NCc3ccc(C(F)(F)F)cc3)C2)nc(Nc2cccc(C#N)c2)n1 [Example 108, (S)-3-(4-propyl-6-{3-[4-(trifluoromethyl)benzylamino]pyrrolidin-1-yl}pyrimidin-2-ylamino)benzonitrile] | 0.21
8 | CCCc1cc(N2CC[C@H](NCC3CC3)C2)nc(Nc2cccc(C#N)c2)n1 [Example 99, (S)-3-{4-[3-(cyclopropylmethylamino)pyrrolidin-1-yl]-6-propylpyrimidin-2-ylamino}benzonitrile] | 0.0015
9 | CCCCc1cc(N2CC[C@H](NC)C2)nc(Nc2cccc(C#N)c2)n1 [Example 226] | 0.052
10 | CCCc1cc(N2CCC[C@H]2COC)nc(Nc2ccc(N)c(C(F)(F)F)c2)n1 [Example 42, (S)-N^1-{4-[2-(methoxymethyl)pyrrolidin-1-yl]-6-propylpyrimidin-2-yl}-3-(trifluoromethyl)benzene-1,4-diamine] | 0.033
11 | CCCc1cc(N2CC[C@H](NC(=O)NCC)C2)nc(Nc2ccc(C)c(C#N)c2)n1 [Example 433] | 0.055
12 | CCCc1cc(N2CCC[C@H]2CO)nc(Nc2cccc([N+](=O)[O-])c2)n1 [Example 207] | 0.083
13 | CCCc1cc(N2CC[C@H](NC(=O)COC)C2)nc(Nc2cccc(C#N)c2)n1 [Example 75, (S)-N-{1-[2-(3-cyanophenylamino)-6-propylpyrimidin-4-yl]pyrrolidin-3-yl}-2-methoxyacetamide] | 0.22
14 | CCCc1cc(N2CC[C@H](NCC3CC3)C2)nc(Nc2ccc(Cl)c([N+](=O)[O-])c2)n1 [Example 372] | 0.0046
15 | CCCCc1cc(N2CC[C@H](NC(C)=O)C2)nc(Nc2ccc(F)c(C#N)c2)n1 [Example 443] | 0.0099
16 | CCCc1cc(N2CC[C@H](NC(C)=O)C2)nc(Nc2ccc(C)c(F)c2)n1 [Example 282] | 0.103
17 | CCCc1cc(N2CCC(NC(C)=O)C2)nc(Nc2cccc(SC)c2)n1 (stereo not shown) [Example 305] | 0.18

Row | Compound | EC50 [nM]
18 | CCCc1cc(N2CCCC2CO)nc(Nc2ccc3cc[nH]c3c2)n1 (stereo not shown) [Example 187] | 0.037
19 | CCCc1cc(N2CCC[C@H]2CO)nc(Nc2ccc(Cl)c([N+](=O)[O-])c2)n1 [Example 196, (S)-{1-[2-(4-chloro-3-nitrophenylamino)-6-propylpyrimidin-4-yl]pyrrolidin-2-yl}methanol] | 0.1
20 | CCCc1cc(N2CCC[C@H]2CO)nc(Nc2ccc(N)c([N+](=O)[O-])c2)n1 [Example 212, (S)-{1-[2-(4-amino-3-nitrophenylamino)-6-propylpyrimidin-4-yl]pyrrolidin-2-yl}methanol] | 0.0089
21 | CCCCc1cc(N2CC[C@H](NCC)C2)nc(Nc2ccc(N)c(C#N)c2)n1 [Example 458] | 0.0017
22 | CCCc1cc(N2CCC[C@H]2C)nc(Nc2ccc(C)c(C#N)c2)n1 [Example 326] | 0.028
23 | CCCc1cc(N2CCC(NC(C)=O)C2)nc(Nc2ccc(N)c([N+](=O)[O-])c2)n1 (stereo not shown) [Example 293] | 0.0043
24 | CCCc1cc(N2CC[C@H](NCC)C2)nc(Nc2cccc(C#N)c2)n1 [Example 55, (S)-3-{4-[3-(ethylamino)pyrrolidin-1-yl]-6-propylpyrimidin-2-ylamino}benzonitrile] | 0.016
25 | CCCc1cc(N2CCC[C@H]2COC)nc(Nc2ccc(C)c([N+](=O)[O-])c2)n1 [Example 40, (S)-4-[2-(methoxymethyl)pyrrolidin-1-yl]-N-(4-methyl-3-nitrophenyl)-6-propylpyrimidin-2-amine] | 0.03
26 | CCCc1cc(N2CCC[C@H]2CO)nc(Nc2ccc(C)c(Cl)c2)n1 [Example 206] | 0.16
27 | CCCc1cc(N2CC[C@H](NC(=O)C(C)C)C2)nc(Nc2cccc(C#N)c2)n1 [Example 81, (S)-N-{1-[2-(3-cyanophenylamino)-6-propylpyrimidin-4-yl]pyrrolidin-3-yl}isobutyramide] | 0.205
28 | CCCCc1cc(N2CC[C@H](NCC)C2)nc(Nc2ccc(F)c(C(F)(F)F)c2)n1 [Example 468] | 0.0062
29 | CCCc1cc(N2CCC[C@H]2C)nc(Nc2ccc(F)c(C(F)(F)F)c2)n1 [Example 322] | 0.15
30 | CCCCc1cc(N2CC[C@H](NC)C2)nc(Nc2ccc(N)c([N+](=O)[O-])c2)n1 [Example 338] | 0.0032
31 | CCCc1cc(N2CC[C@H](NCC)C2)nc(Nc2ccc(F)cc2)n1 [Example 18, (S)-4-[3-(ethylamino)pyrrolidin-1-yl]-N-(4-fluorophenyl)-6-propylpyrimidin-2-amine] | 0.14
32 | CCCc1cc(N2CCC[C@H]2COC)nc(Nc2ccc3cc[nH]c3c2)n1 [Example 189] | 0.028
33 | CCCCc1cc(N2CC[C@H](NC(C)=O)C2)nc(Nc2ccc(C)c([N+](=O)[O-])c2)n1 [Example 436] | 0.01
34 | CCCc1cc(N2CCC[C@H]2C)nc(Nc2cccc([N+](=O)[O-])c2)n1 [Example 319] | 0.08

The remaining compounds from weak to strong by EC50, led by results:

Row | EC50 [nM] | Compound
35 | 0.27 | CCCc1cc(N2CC[C@H](NC(=O)Cc3ccc(N)cc3)C2)nc(Nc2cccc(C#N)c2)n1 [Example 73, (S)-2-(4-aminophenyl)-N-{1-[2-(3-cyanophenylamino)-6-propylpyrimidin-4-yl]pyrrolidin-3-yl}acetamide]
36 | 0.182 | CCCc1cc(N2CCC[C@H]2COC)nc(Nc2ccc3c(c2)NCC3)n1 [Example 368]
37 | 0.16 | CCCc1cc(N2CCC[C@H]2COC)nc(Nc2cccc(C#N)c2)n1 [Example 34, (S)-3-{4-[2-(methoxymethyl)pyrrolidin-1-yl]-6-propylpyrimidin-2-ylamino}benzonitrile]
38 | 0.16 | CCCc1cc(N2CCC[C@H]2C)nc(Nc2ccc(C)c(Cl)c2)n1 [Example 318]
39 | 0.082 | CCCc1cc(N2CC[C@H](NC(=O)CN)C2)nc(Nc2cccc(C#N)c2)n1 [Example 395]
40 | 0.028 | CCCc1cc(N2CC[C@H](NC3CCN(C(C)=O)CC3)C2)nc(Nc2cccc(C#N)c2)n1 [Example 140, (S)-3-{4-[3-(1-piperidin-4-acetylpiperidin-4-ylamino)pyrrolidin-1-yl]-6-propylpyrimidin-2-ylamino}benzonitrile]
41 | 0.015 | CCCc1cc(N2CC[C@H](N)C2)nc(Nc2ccc(F)c(N)c2)n1 [Example 370, (S)—N^1-[4-(3-aminopyrrolidin-1-yl)-6-propylpyrimidin-2-yl]-4-fluorobenzene-1,3-diamine dihydrochloride]
42 | 0.009 | CCCc1cc(N2CC[C@H](NCC3CC3)C2)nc(Nc2cc(Cl)ccc2C)n1 [Example 380]
43 | 0.007 | CCCc1cc(N2CC[C@H](N)C2)nc(Nc2ccc(N)c(C#N)c2)n1 [Example 355]
44 | 0.0066 | CCCc1cc(N2CC[C@H](NC(=O)CO)C2)nc(Nc2cc(N)cc(C#N)c2)n1 [Example 474, (S)—N-{1-[2-(3-amino-5-cyanophenylamino)-6-propylpyrimidin-4-yl]pyrrolidin-3-yl}-2-hydroxyacetamide]
45 | 0.0065 | CCCc1cc(N2CC[C@H](N)C2)nc(Nc2ccc(F)c(C(F)(F)F)c2)n1 [Example 357, (S)-4-(3-aminopyrrolidin-1-yl)-N-[4-fluoro-3-(trifluoromethyl)phenyl]-6-propylpyrimidin-2-amine dihydrochloride]
46 | 0.0051 | CCCc1cc(N2CC[C@H](NCc3ccc(O)cc3)C2)nc(Nc2ccc(C)c(C#N)c2)n1 [Example 417]
47 | 0.003 | CCCCc1cc(N2CC[C@H](NC)C2)nc(Nc2cc(N)cc(C#N)c2)n1 [Example 451]
48 | 0.0026 | CCCCc1cc(N2CC[C@H](NCC)C2)nc(Nc2ccc(C)c([N+](=O)[O-])c2)n1 [Example 462]
49 | 0.0024 | CCCc1cc(N2CC[C@H](NC)C2)nc(Nc2cc(N)cc(C#N)c2)n1 [Example 485]
